# Laboratory results as given in article PMC7269146, “Jingzhaotoxin-X, a gating modifier of Kv4.2 and Kv4.3 potassium channels purified from the venom of the Chinese tarantula Chilobrachys jingzhao” (The Journal of Venomous Animals and Toxins Including …, 2020).
# Where a SMILES comes first, the peptide text is derived from it. Bridges are numbered along the chain shown (N, C = ends).
# Target: T1, Kv4.3 (Rattus norvegicus, UniProt Q62897)
# T1 construct: expressed in transfected cells; host or cells: HEK293t
# T1 sequence (Q62897 1-655): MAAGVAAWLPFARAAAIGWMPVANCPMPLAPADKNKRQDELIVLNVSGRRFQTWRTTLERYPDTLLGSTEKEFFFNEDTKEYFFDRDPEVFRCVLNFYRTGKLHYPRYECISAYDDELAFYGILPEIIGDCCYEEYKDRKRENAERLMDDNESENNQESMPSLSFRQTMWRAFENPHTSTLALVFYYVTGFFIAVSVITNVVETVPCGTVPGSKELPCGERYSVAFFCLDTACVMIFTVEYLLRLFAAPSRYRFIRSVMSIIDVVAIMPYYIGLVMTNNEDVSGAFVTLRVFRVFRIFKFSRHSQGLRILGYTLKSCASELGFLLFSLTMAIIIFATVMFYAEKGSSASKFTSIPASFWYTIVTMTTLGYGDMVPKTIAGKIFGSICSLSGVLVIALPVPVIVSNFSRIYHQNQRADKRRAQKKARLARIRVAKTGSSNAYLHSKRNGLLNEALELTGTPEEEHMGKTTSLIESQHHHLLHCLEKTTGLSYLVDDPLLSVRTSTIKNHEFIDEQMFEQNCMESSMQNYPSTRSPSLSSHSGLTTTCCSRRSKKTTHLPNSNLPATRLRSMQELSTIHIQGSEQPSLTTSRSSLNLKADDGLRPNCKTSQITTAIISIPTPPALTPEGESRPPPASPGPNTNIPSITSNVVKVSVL
# Experiment: whole-cell patch-clamp, Kv4.3 in HEK293t cells, concentration-response and time course
# Assay type: cell-based
# Source text: Rat cDNA genes encoding Kv4.2 (Accession: NM_031730.2) and Kv4.3 (Accession: AB003587.1) were subcloned to vector pcDNA3.1. In addition, human cDNA genes encoding Nav1.7 (Accession: DQ857292.1) and Nav1.5 (Accession: AB158469.2) were subcloned to vectors pcDNA3.1-mod and pcDNA3.1, separately. Then, Kv4.2, Kv4.3, Nav1.5 and Nav1.7 constructs were transiently transfected into the human embryonic kidney 293t (HEK293t) cells using lipofectamine 2000 (Invitrogen, USA) in accordance with manufacturer protocols. Thereafter, HEK293 cells were inoculated within Dulbecco’s modified Eagle’s medium (DMEM) containing 10% fetal bovine serum (FBS) at 5% CO2 and 37°C. The Kv4.3 channel and the Kv4.2 counterpart were then transfected in the absence of β subunit. Subsequently, cells were incubated with a DNA-lipofectamine mixture (one reporter plasmid for green fluorescence protein and channel constructs) for 4-6 h, and were washed with the fresh medium.
# An EPC-10 patch-clamp amplifier (HEKA, Germany) was employed to record the potassium currents at the configuration of whole-cell patch-clamp under an ambient temperature of 22-25°C. The resistance was 2.0-3.0 MΩ when the recording pipette contained a full volume of internal solution (supplemented with 140 mM KCl, 10 mM HEPES, 2.5 mM MgCl2, 5 mM ATP and 11 mM EGTA). KOH was utilized to adjust the pH to 7.2, while sucrose was employed to adjust the osmolarity to 310 mOsm/L. The culture medium was replaced with an external solution containing 150 mM NaCl, 2.5 mM CaCl2, 10 mM HEPES, 2 mM MgCl2, 5 mM KCl, and 10 mM D-glucose. Similarly, sucrose and NaOH were applied to adjust the osmolarity to 330 mOsm/L and pH to 7.4. […] The series resistance was maintained at about 5 MΩ, with 65-70% compensation. Finally, the leakage currents and linear capacitance were subtracted digitally according to the P/4 protocol. […]
# On-rates were determined by fitting time course data with a single exponential decay function (2): y = Ae^-kx + C, where x is the time, A is the normalized current value before the application of toxin (usually 1.0), and C is the final normalized current value following the block by the toxin. The on-rate (τon) was determined from the inverse of the rate constant k.
# Off-rates were determined by fitting time course data with a double exponential association function (3): y = A(1-e^-kx) + B(1-e^-fx) + C, where x is the time, A or B is the normalized current value after washout of the toxin (usually 1.0 if complete washout occurred), and C is the normalized current value before the washout of the toxin. The off-rate (τoff) was determined from the inverse of the rate constant k or f.
structure (smiles),measurement,setting,value
"CC(C)C[C@@H]1NC(=O)[C@H](CCCCN)NC(=O)[C@H](Cc2ccc(O)cc2)NC(=O)[C@@H]2CSSC[C@@H]3NC(=O)[C@H](Cc4ccc(O)cc4)NC(=O)[C@H](Cc4ccccc4)NC(=O)CNC(=O)[C@H](C)NC(=O)[C@H](CSSC[C@H](NC(=O)[C@@H](N)CC(C)C)C(=O)N[C@@H](CO)C(=O)N[C@@H](CCCNC(=N)N)C(=O)N[C@@H](CCC(=O)O)C(=O)NCC(=O)N[C@@H](CCC(=O)O)C(=O)N[C@@H](Cc4ccccc4)C(=O)N2)NC(=O)[C@H](CSSC[C@@H](C(=O)N[C@@H](Cc2ccc(O)cc2)C(=O)N[C@@H](CCCNC(=N)N)C(=O)N[C@@H](CC(N)=O)C(=O)O)NC(=O)[C@H](Cc2c[nH]cn2)NC(=O)[C@H](CC(C)C)NC(=O)[C@H](C(C)C)NC(=O)[C@H](Cc2ccccc2)NC(=O)[C@H](C)NC(=O)[C@H](CCCCN)NC3=O)NC(=O)[C@H](CCCCN)NC(=O)[C@H](CCCNC(=N)N)NC1=O [JZTX-X, Jingzhaotoxin-X] (H-LCSREGEFCYKLRKCCAGFYCKAFVLHCYRN-OH; disulfide 2-16, 9-21, 15-28; N-terminus assumed)",inhibition of Kv4.3 at resting potential without pulses,"-80 mV, no pulse during first ~100 s of treatment with 200 nM or 500 nM (order Kv4.2, Kv4.3), same as with pulses at 5 s intervals, n = 5",approximately 95%
same,IC50,"HEK293t cells, 1 nM-10 μM, 300-ms step to +20 mV from -80 mV, 22-25°C, pH 7.4, Hill equation fit, n = 8, read-out: IC50 for Kv4.3 channels",210 nM
same,"Hill Coefficient, Kv4.3","HEK293t cells, +20 mV from -80 mV, n = 8",1.17
same,reversal of Kv4.3 inhibition after rinsing,"in 3 min following rinsing, high JZTX-X dose, HEK293t cells, n = 6",> 95%
